Data on three molecules can be found in publication PMC7996536, “Optimization of Tilmicosin-Loaded Nanostructured Lipid Carriers Using Orthogonal Design for Overcoming Oral Administration Obstacle” (Pharmaceutics, 2021).

In brackets after ≈: the same amount, converted by molar mass. Structures can show the parent of a compound that is named as a salt. Where two headings read alike, the source gives them in different places.

A short description of data set [1]: In vitro drug release by the dialysis bag method. Type of data set: physicochemical. The following applies: 48 h. The protocol: The in vitro drug release behavior of TMS-NLCs was carried out over 48 h by the dialysis bag method. Briefly, TMS-NLCs or the corresponding active pharmaceutical ingredient (API) of TMS (3 mL, 10 mg/mL) was added into a dialysis bag (MWCO of 100 kD, 16 mm, and 0.79 mL/cm), immersed in the simulated gastric or intestinal juice (500 mL) at 37 °C, and stirred under the magnetic stirrer with 100 rpm. At the set time, the samples (1 mL) were taken out and substituted by the same volume of fresh receptor fluids, and the TMS concentrations were detected by HPLC.
In this study, the concentrations of TMS in various media were detected with HPLC (Thermo U3000, Thermo Fisher Scientific, New York, NY, USA) with a C18 Reverse-phase column (5 µm, 4.6 mm inner diameter × 250 mm length, Agilent, Palo Alto, CA, USA). The mobile phase was acetonitrile–tetrahydrofuran–water–n-dibutylamine phosphate buffer salt solution (12:5.5:80:2.5; v/v). The column temperature was 30 °C, the injection volume was 20 µL, the UV detection wavelength was 291 nm, and the flow rate was 1 mL/min. The samples were filtered through a 0.22 µm filter membrane before HPLC analysis. The concentration of TMS was calculated using the standard curve equation (y = 31.314x − 2.0603, R^2 = 0.9999) for HPLC analysis of TMS, which had the good linear pattern over a range from 1 to 20 µg/mL as reported previously.

A short description of data set [2]: Bidirectional transport of API and TMS-NLCs across cell monolayers. Format: in vitro ADME, canine. The note with it: dog, MDCK; for Papp A→B at 4 h, 10 µg/mL / Papp B→A at 4 h, 10 µg/mL: 37 °C; for efflux ratio at 4 h, 10 µg/mL: read-out: ER. As to the method: (§1) MDCK and MDCK-chAbcg2/Abcb1 cells were seeded on 12-well Transwell® polycarbonate inserts at a density of 2 × 10^5 cells per well to constitute in vitro cell monolayer models. The apical side (AP) of the insert was filled with 0.5 mL medium, and the basolateral (BL) side was filled with 1.5 mL medium. The medium was replaced every two days. It took 5~7 days to form an intact cell monolayer.
(§2) The permeability efficiency was evaluated by comparing the bidirectional transport between API and TMS-NLCs. Briefly, apical-to-basolateral (AP→BL) and basolateral-to-apical (BL→AP) transport across monolayers was conducted by adding 10 µg/mL API or TMS-NLCs to donor compartments and incubating at 37 °C for 4 h. Then, the samples from receiver compartments were taken to analyze TMS concentrations by HPLC.
(§3) TMS is the substrate of glycoprotein (P-gp). To evaluate the inhibition effect of TMS-NLCs on P-gp mediated efflux, cell monolayers were incubated with the P-gp inhibitor verapamil (100 µM) for 1 h, and then, the medium was replaced with a mixture of verapamil and API or TMS-NLCs on one side and co-incubated for 4 h for bidirectional transport assay.
(§4) The efflux ratio (ER) and net efflux ratio (NER) values were obtained from the following equation [27, 28]:ER = Papp(BL→AP)/Papp(AP→BL) NER = ER(MDCK-chAbcg2/Abcb1)/ER(MDCK).

The subject of data set [3] is MDCK-chAbcg2/Abcb1 cell monolayers. The description is as above. Type of data set: in vitro ADME, canine. The following applies: ER(MDCK-chAbcg2/Abcb1)/ER(MDCK). The protocol: as §1, §2, §3, §4
The subject of data set [4] is chAbcg2/Abcb1 (P-gp). Described as above. Type of data set: in vitro ADME, canine. The note with it: dog, MDCK-chAbcg2/Abcb1; for Papp A→B at 4 h, 10 µg/mL / Papp B→A at 4 h, 10 µg/mL: 37 °C; for efflux ratio at 4 h, 10 µg/mL: read-out: ER. The protocol: as §1, §2, §3, §4
The test system of data set [5] is MDCK-chAbcg2/abcb1 monolayers. The experiment in a line: Transport mechanism of TMS-NLCs across monolayers (tracers, 4 °C, endocytosis inhibitors). The protocol:
To investigate the transport mechanism of TMS-NLCs, propranolol (100 µM) and lucifer yellow (225 µM) as the tracers were added to the AP side and co-incubated with TMS-NLCs for 4 h. The tracers that passed through monolayers to the BL side were quantified. The transport experiments of TMS-NLCs across MDCK-chAbcg2/abcb1 monolayers were also conducted at 4 °C. To get further insights into the transcellular transport of TMS-NLCs, the monolayers were pre-incubated with various endocytosis inhibitors on the AP side for 1 h and then co-incubated with TMS-NLCs for 4 h. The determination of TMS in the samples collected from the BL side was analyzed by HPLC.

Data set [6] relates to MDCK cells. The experiment in a line: MTT cell viability. Format: cell-based, canine. The following applies: up to 50 µg/mL, 4 h, Figure 4A. The protocol:
(§5) MTT assay was used to evaluate cell viability. Cells were seeded on 96-well plates 1 × 10^4 cells per well, cultured for 24 h until 90% confluent, and exposed to different concentrations of NLCs for 4 h. Then, the medium was replaced with 20 µL MTT (5 mg/mL) and 180 µL serum-free medium. After incubation for 4 h, the medium containing MTT was substituted with 150 µL DMSO. The absorbance of formazan was measured by a microplate reader (BIO-RAD, Hercules, CA, USA) at 490 nm. Untreated cells were taken as the control. The cytotoxicity was expressed as the cell viability compared with the untreated cells. Similarly, the cytotoxicity of endocytosis inhibitors were also evaluated, and the concentrations of each drug were chosen on the basis of the published literature, and EIPA (50 µM), chlorpromazine (30 µM), dynasore (80 µM), and MβCD (2 mM) were used in the present study.

For data set [7], the system named is MDCK-chAbcg2/Abcb1 cells. The experiment in a line: MTT cell viability. Format: cell-based, canine. The note with it: up to 50 µg/mL, 4 h, Figure 4B. The protocol: as §5
In data set [8] the test system is Escherichia coli ATCC 25922. Briefly: Microdilution broth MIC. The note with it: ATCC25922, E. coli. Format: cell-based. As to the method:
(§6) Microdilution broth assay was carried out to evaluate the antibacterial activity of API and TMS-NLCs according to the guidelines of the CLSI. The minimal inhibitory concentration (MIC) was determined against 2 strains of Gram-positive bacteria and 2 strains of Gram-negative bacteria. Staphylococcus aureus QWJAB25 and Streptococcus agalactiae A27 were isolated from milk in a scale farm located in Yangzhou, Jiangsu Province in 2019. The Escherichia coli used in this study was ATCC 25922. The Salmonella Typhimurium strain 1344 was donated by Associate Professor Jian Lin from College of Life Sciences, Nanjing Agricultural University.

The subject of data set [9] is Salmonella Typhimurium strain 1344. Briefly: Microdilution broth MIC. Format: cell-based. The following applies: Salmonella enterica; S. Typhimurium. As to the method:
as §6
On the technique in general: Broth dilution looks for growth in wells or tubes with falling amounts of substance.

For data set [10], the system named is Staphylococcus aureus QWJAB25. Briefly: Microdilution broth MIC. Format: cell-based. The following applies: S. aureus. As to the method: as §6
In data set [11] the test system is Streptococcus agalactiae A27. The experiment in a line: Microdilution broth MIC. Format: cell-based. The following applies: S. agalactiae. As to the method:
as §6

Data set [12] is described as follows: Permeability of cell monolayers (tracers). Type of data set: in vitro ADME, canine. The following applies: dog, 37 °C, lucifer yellow 225 µM, propranolol 100 µM. The protocol:
as §1
(§7) During the cultivation, the integrity of cell monolayers was evaluated by the transepithelial electrical resistance (TEER) values measured with Epithelial Volt-Ohm Meter (Millipore, Burlington, MA, USA). Monolayers with TEER values over 500 and 1700 Ω·cm^2 of MDCK and MDCK-chAbcg2/Abcb1 cells respectively were used for drug transport experiments, and the TEER values were also checked after the transport experiment to guarantee the integrity of cell monolayers. TEER = (Rtotal − Rblank) × A (Ω·cm^2)
(§8) After a week of cultivation, the AP side was filled with 0.5 mL propranolol (100 µM) or lucifer yellow (225 µM) and 1.5 mL of Hank’s solution on the BL side for 4 h at 37 °C. The solution on the BL side was collected for fluorescence analysis. The detection wavelengths were 428/540 nm ([…]) and 290/330 nm (propranolol), respectively. The apparent permeability coefficient (Papp) was calculated according to the following equation [24]:Papp = dQ/(dt * AC0) where dQ/dt is the transport rate in the receiver solution, A is the membrane surface area, and C0 is the initial concentration in the donor compartment.

The test system of data set [13] is MDCK cell monolayers. The experiment in a line: Permeability of cell monolayers (tracers). The following applies: AP to BL, 4 h, 37 °C, lucifer yellow 225 µM, propranolol 100 µM. Type of data set: in vitro ADME, canine. As to the method: as §1, §7, §8
Data set [14] concerns MDCK-chAbcg2/Abcb1 cell monolayers. The experiment in a line: Permeability of cell monolayers (tracers). Format: in vitro ADME, canine. The note with it: AP to BL, 4 h, 37 °C, lucifer yellow 225 µM, propranolol 100 µM. As to the method:
as §1, §7, §8

On to `CC[C@H]1OC(=O)C[C@@H](O)[C@H](C)[C@@H](O[C@@H]2O[C@H](C)[C@@H](O)[C@H](N(C)C)[C@H]2O)[C@@H](CCN2C[C@H](C)C[C@H](C)C2)C[C@@H](C)C(=O)/C=C/C(C)=C/[C@@H]1CO[C@@H]1O[C@H](C)[C@@H](O)[C@@H](OC)[C@H]1OC` [API, Tilmicosin], for which the in vitro release is roughly 80% in data set [1] (SGF, pH 1.2, 37 °C) and roughly 80% in data set [1] (SIF, pH 6.8, 37 °C). For the same molecule, the Papp A→B (as a rule, the apparent permeability from the apical to the basolateral side of a cell layer) at 4 h, 10 µg/mL in data set [2] (with verapamil (100 µM)) is 3.8 ± 0.2 nm/s; in [2] (without verapamil), 4.2 ± 0.4 nm/s; in data set [4] (with verapamil (100 µM)) it was 3.9 ± 0.4 nm/s; in data set [4] (without verapamil), 4 ± 0.2 nm/s. Besides, the apparent permeability from basolateral to apical (Papp B→A) (usually the apparent permeability from the basolateral to the apical side of a cell layer) at 4 h, 10 µg/mL in data set [2] (with verapamil (100 µM)) came out at 4.1 ± 0.4 nm/s; in data set [2] (without verapamil) it was 5.3 ± 0.2 nm/s; in [4] (with verapamil (100 µM)), 3.9 ± 0.7 nm/s; in [4] (without verapamil), 10.6 ± 0.3 nm/s. Moreover, the efflux ratio at 4 h, 10 µg/mL in data set [2] (with verapamil (100 µM)) stood at 1.06; in data set [2] (without verapamil) it was 1.27; in data set [4] (with verapamil (100 µM)), 1; in data set [4] (without verapamil), 2.63. For the same molecule, the NER in [3] (with verapamil (100 µM)) was 0.94; in data set [3] (without verapamil) it was 2.07. Besides, the Papp (in general, a coefficient for how fast a substance crosses the barrier) at 4 °C in [5] was “under the detection limit”. Moreover, the “cell viability compared to untreated cells” value in [6] and in data set [7] was “not significantly decreased” in each case. Besides, the MIC (usually the least concentration at which growth counts as inhibited) in data set [8] was 16 mg/L (≈ 18.4 µM); in [9] it was 16 mg/L (≈ 18.4 µM); in data set [10], less than 0.5 mg/L; in [11], 16 mg/L (≈ 18.4 µM).
Regarding `CC(C)NCC(O)COc1cccc2ccccc12` (centres unmarked) [Propranolol, propranolol hydrochloride], the Papp at 4 h, 100 µM in data set [12] (MDCK, AP to BL) worked out at 162 ± 6.5 nm/s; in data set [12] (MDCK-chAbcg2/Abcb1, AP to BL) it was 176 ± 6.4 nm/s. In data set [5], the “Papp of tracer co-incubated with TMS-NLCs versus without” value was “no significant difference”.
On to lucifer yellow, for which the Papp is recorded as 0.22 ± 0.06 ×10^−6 cm/s in [13] and 0.13 ± 0.01 ×10^−6 cm/s in [14]. Further, in data set [5] (AP side, 4 h, Figure 5A), the “Papp of tracer co-incubated with TMS-NLCs versus without” value is given as “no significant difference”.
